{"source": "patent US20060052322A1", "about": "“Combination treatment of cancer with elicitor of gene product expression and gene-product targeting agent” (INTROGEN THERAPEUTICS, INC., priority 2004, published 2006)", "origin": "cited, not measured here", "key": {"[1]": {"settings": "share of dose"}}, "note": "Where a name gives a salt, the structure may show the parent alone. Read-outs that look alike come from different tables or passages of the source. Starred links: 1 amine or outer side, 2 acyl side, 3 side chain; linkers in the order of their positions; H or OH if unused. Positions of bridges follow the written chain, without caps; N, C: chain ends. Non-standard residues stand in square brackets, D forms with d. Residues, ends and D or L forms follow the SMILES beside them. Chains are numbered I, II in the order given. Actinocin(9to1) = Cc1c2oc3c(C)ccc(C(=O)[*:1])c3nc-2c(C(=O)[*:2])c(N)c1=O; NMeV = CN[C@H](C(=O)O)C(C)C; Sar = CNCC(=O)O", "data": [{"molecule": "Cc1c2oc3c(C)ccc(C(=O)N[C@@H]4C(=O)N[C@H](C(C)C)C(=O)N5CCC[C@H]5C(=O)N(C)CC(=O)N(C)[C@@H](C(C)C)C(=O)O[C@@H]4C)c3nc-2c(C(=O)N[C@@H]2C(=O)N[C@H](C(C)C)C(=O)N3CCC[C@H]3C(=O)N(C)CC(=O)N(C)[C@@H](C(C)C)C(=O)O[C@@H]2C)c(N)c1=O", "note": "[Actinomycin D] (I: T[dV]P[Sar][NMeV] / II: T[dV]P[Sar][NMeV]; ester I:1-I:C, II:1-II:C; linker I:N-II:N via Actinocin(9to1))", "values": [{"measurement": "excreted/recovered in the urine", "setting": "[1]", "value": 10, "unit": "%"}, {"measurement": "secreted/excreted into the bile", "setting": "[1]", "value": "Half"}]}, {"molecule": "CC[C@@]1(O)C(=O)OCc2c1cc1n(c2=O)Cc2cc3ccccc3nc2-1", "note": "[Camptothecin]", "values": [{"measurement": "storage stability", "setting": "2-8° C., dry, airtight, light-resistant environment", "value": "at least two years"}]}, {"molecule": "COc1cccc2c1C(=O)c1c(O)c3c(c(O)c1C2=O)C[C@@](O)(C(C)=O)C[C@@H]3O[C@H]1C[C@H](N)[C@H](O)[C@H](C)O1", "note": "[Daunorubicin, 5,12-Naphthacenedione, (8S-cis)-8-acetyl-10-[(3-amino-2,3,6-trideoxy-a-L-lyxo-hexanopyranosyl)oxy]-7,8,9,10-tetrahydro-6,8,11-trihydroxy-10-methoxy-, hydrochloride]", "values": [{"measurement": "secreted/excreted into the bile", "setting": "[1]", "value": "~40", "unit": "%"}]}, {"molecule": "COc1cccc2c1C(=O)c1c(O)c3c(c(O)c1C2=O)C[C@@](O)(C(=O)CO)C[C@@H]3O[C@H]1C[C@H](N)[C@H](O)[C@H](C)O1", "note": "[Doxorubicin, 5,12-Naphthacenedione, (8s-cis)-10-[(3-amino-2,3,6-trideoxy-a-L-lyxo-hexopyranosyl)oxy]-7,8,9,10-tetrahydro-6,8,11-trihydroxy-8-(hydroxyacetyl)-1-methoxy-hydrochloride]", "values": [{"measurement": "excreted/recovered in the urine", "setting": "[1]", "value": "a few percent"}]}, {"molecule": "O=NN(CCCl)C(=O)NC1CCCCC1", "note": "[Lomustine, 1-(2-chloro-ethyl)-3-cyclohexyl-1 nitrosourea]", "values": [{"measurement": "solubility", "setting": "absolute alcohol", "value": 70, "unit": "mg per ml"}, {"measurement": "solubility", "setting": "water", "value": "< 0.05", "unit": "mg per ml"}]}, {"molecule": "CO[C@@]12[C@H](COC(N)=O)C3=C(C(=O)C(C)=C(N)C3=O)N1C[C@@H]1N[C@@H]12", "note": "[Mitomycin]", "values": [{"measurement": "excreted/recovered in the urine", "setting": "[1]", "value": "Approximately 10%"}]}, {"molecule": "CC[C@]1(O)C[C@@H]2CN(CCc3c([nH]c4ccccc34)[C@@](C(=O)OC)(c3cc4c(cc3OC)N(C)[C@H]3[C@@](O)(C(=O)OC)[C@H](OC(C)=O)[C@]5(CC)C=CCN6CC[C@]43[C@@H]65)C2)C1", "note": "[Vinblastine]", "values": [{"measurement": "excreted/recovered in the urine", "setting": "[1]", "value": "Approximately 15%"}]}]}
